According to patent US20250108036A1, “COMPOSITIONS FOR REMOVING SENESCENT CELLS AND USES THEREOF” (LIFECEUTIX CO., LTD., priority 2021, published 2025):

How the values were obtained:
[1] = system: foreskin cells in which aging was induced by doxorubicin; assay: cell viability of senescent foreskin cells with caspase inhibitor QVD-Oph (Example 10, Table 61); assay type: cell-based, human; conditions: LX-112 10 μM; for Survial (%): doxorubicin-senescent foreskin cells, 3 days
[2] = system: urea, creatinine, Agtr1a mRNA; assay: kidney damage markers in doxorubicin-aged mice (Example 8-9); assay type: in vivo, C57BL6J mice; conditions: LX-112 70 mg/kg oral daily 21 days, DOX without LX = 100%
Experimental: (§1) After adapting 8-week-old male C57BL6J mice (purchased from KRIBB Laboratory Animal Resource Center) to the experimental environment for 1 week, doxorubicin, an anticancer drug, was administered intraperitoneally at a concentration of 10 mg/kg, and mice that were induced to age for more than 10 days were assigned to an experimental group and a control group. LX-112 was mixed with 0.5% CMC-Na solution (purchased from Sigma) and administered orally at a concentration of 70 mg/kg daily for 21 days. The control group was administered only the solution in the same volume. After drug administration was completed, the method described in each Example below was performed.
The amounts of urea and creatinine, markers of kidney damage, in serum collected from mice were measured using spectrophotometry in the same manner as in Example 7-8. […] The amount of each factor after aging was induced by treatment with the anticancer drug was calculated as 100% and compared it with the amount of each factor after treatment with LX-112.

[3] = system: umbilical cord-derived mesenchymal stem cells; assay: death of senescent stem cells by LX-112; assay type: cell-based, human; conditions: LX-112 10 μM
Experimental: In addition to somatic cells, the death of senescent cells by LX-112 was confirmed to be about 50% in stem cells (umbilical cord-derived mesenchymal stem cells, purchased from ATCC) at a concentration of 10 μM. From this, it was confirmed that LX-112 can effectively remove senescent cells by inducing their death.

[4] = system: IL6; assay: serum IL6 ELISA in doxorubicin-aged mice (Example 8-5); assay type: in vivo, C57BL6J mice; conditions: doxorubicin-aged mice, LX-112 70 mg/kg oral daily 21 days
Experimental: as §1
The amount of IL6, an aging-related inflammation secretory factor (SASP), was measured in serum collected from mice in the same manner as in Example 7-5 using an enzyme-linked immunosorbent assay (ELISA Kit, purchased from R&D Systems).

[5] = system: AST, ALT; assay: serum AST and ALT in doxorubicin-aged mice (Example 8-8); assay type: in vivo, C57BL6J mice; conditions: doxorubicin-aged mice, LX-112 70 mg/kg oral daily 21 days, DOX without LX = 100%
Experimental: as §1
In the same manner as in Example 7-5, the amounts of AST (aspartate aminotransferase) and ALT (alanine transaminase) released into the blood during liver damage were measured by spectrophotometry in the serum collected from mice using a kit (purchased from Sigma) according to the method described in the manual. […] Table 50 calculates the amount of each factor after aging was induced by treatment with the anticancer drug as 100% and compared it with the amount of each factor after treatment with LX-112.

[6] = system: p16, MMP3, IL6; assay: p16, MMP3, IL6 mRNA qRT-PCR in groin fat of obese mice given senescent cells killed by test compounds (Example 16, Table 72); assay type: in vivo, C57BL6J mice; conditions: obese mice administered senescent cells whose death was induced by the test compound
Text: To obtain preadipocytes, groin fat tissue was collected from an 8-week-old female C57BL6J mouse (purchased from KRIBB Laboratory Animal Resource Center). The fat tissue was cut into small pieces and treated with collagenase to decompose the fat tissue, then centrifuged to collect the stromal vascular fraction (SVF) containing preadipocytes. It was washed with a washing medium (HBSS, purchased from GenDEPOT; 3.5% Albumin Fraction V, purchased from GenDEPOT; 100 U/ml Penicillin & Streptomycin, purchased from Invitrogen), mixed again, and extracted by filtering through a 100 μm nylon mesh. The isolated preadipocytes were cultured in the designated medium (DMEM, purchased from GenDEPOT; 20% FBS, purchased from GenDEPOT; 100 U/ml Penicillin & Streptomycin, purchased from Invitrogen). In the same manner as Example 1, cells were treated with doxorubicin at a concentration of 250 nM for 24 hours and cultured for an additional 21 days to induce cell senescence. Cells were treated with doxorubicin at a concentration of 250 nM for 24 hours and cultured for an additional 21 days to induce cell senescence. By treating the test compounds in the same manner as in Example 13, it was confirmed using an optical microscope that the death of most senescent cells was induced. The killed preadipocytes were washed using PBS (purchased from Welgene) and then mixed with PBS at a concentration of 5×10^5 cells/200 μl. It was administered subcutaneously to 8-week-old female C57BL6J mice (purchased from KRIBB Laboratory Animal Resource Center). At 7 and 10 days after administration of the killed senescent cells, 2 million senescent preadipocytes were mixed in 200 μl of PBS and administered into the abdominal cavity of mice. After administration of killed senescent cells, obesity was induced in mice with a high-fat diet (DIO) for 8 weeks in the same manner as in Example 9-1. Afterwards, the mouse was sacrificed in the same manner as in Example 7-2, total RNA was extracted from the groin fat tissue, and qRT-PCR was performed and analyzed using the synthesized cDNA. […] The mRNA amount of p16, MMP3, and IL6 without administration of senescent cells whose death was induced by the test compounds was calculated as 100%, and the amount of p16, MMP3, and IL6 after administration of the senescent cells whose death was induced by the test compounds was compared with them. Furthermore, an open field test was performed to analyze aging-related frailty in mice using the same method as Example 7-7. […] The amount of activity evaluation without administration of senescent cells whose death was induced by the test compounds was calculated as 100% and compared it with the amount of activity evaluation after administration of senescent cells whose death was induced by the test compounds. […]

[7] = system: senescent cancer (A549) cells; assay: survival of senescent A549 cancer cells treated with medium supernatant of compound-killed cancer cells (Example 14, Table 70); assay type: cell-based, human
Experimental: In the same way as Examples 12 and 13, senescence of cancer (A549) cells was induced by treatment with doxorubicin or the control group (DMSO), and the cells were cultured. […] In the same manner as in Example 13, the medium supernatants comprising secreted fluid from normally proliferating and senescent cancer cells was obtained. Normally proliferating and senescent-induced cancer cells were treated with the medium supernatants.
Furthermore, other test compounds were used in the same manner in Example 12 above at high concentrations of 30 μM, 90 μM, and 270 μM, respectively, and the cultured medium supernatant comprising secreted fluid from aged cancer cells that were killed were obtained. As a result of measuring the degree of death of aged cancer cells, it was confirmed that aged cancer cells can be effectively removed, as shown in Example 12 and Table 65.

[8] = system: HMGN1; assay: HMGN1 ELISA in culture medium of A549 cancer cells (Example 12, Table 66); assay type: cell-based, human; conditions: Homo sapiens, A549, doxorubicin-induced senescent A549 cells, test compound 30 μM, ELISA, DMSO = 100; read-out: HMGN1 (amount of HMGN1 secreted in the cell culture)

SMILES: O=c1c2ccccc2[se]n1CCn1[se]c2ccccc2c1=O [LX-112, 1,2-[bis(1,2-benzisoselenazolone-3(2H)-ketone)]ethane]
- Survial (%) ([1]; QVD-Oph 20 μM applied 4 hours before): 53.9 (±2.2) %
- Survial (%) ([1]; without QVD-Oph): 39.5 (±3.7) %
- inhibition of the death of senescent cells by the caspase inhibitor ([1]; QVD-Oph 20 μM, ABT-263 1 μM): did not effectively inhibit
- Agtr1a mRNA (%) [2]: 75 (±9) %
- Creatinine (%) ([2]; serum): 89 (±4) %
- Urea (%) ([2]; serum): 91.2 (±1.2) %
- death of senescent cells [3]: about 50%
- IL6 (%) [4]: 69.8 (±12.2) %
- ALT (%) [5]: 72.2 (±14.1) %
- AST (%) [5]: 78 (±17.3) %

SMILES: COC(=O)c1ccc([C@H]2c3[nH]c4ccccc4c3C[C@H](C(=O)OC)N2C(=O)CCl)cc1 [LX-405]
- IL6 mRNA (%) [6]: 68.7 (±9.1) %
- MMP3 mRNA (%) [6]: 80.5 (±2.8) %
- p16 mRNA (%) [6]: 72.4 (±3.9) %
- Survival (%) ([7]; supernatant from No Cells): 98.2 (±2.8) %
- Survival (%) ([7]; supernatant from death-induced proliferating cells (LX-405 30 μM)): 78.8 (±7.7) %
- Survival (%) ([7]; supernatant from death-induced senescent cells (LX-405 30 μM)): 72.5 (±5.7) %
- activity at 30 µM [8]: 310%
